Columns and labels:
[1] = Metabolic stability in human liver microsomes; assay type: in vitro ADME; details: 1 μM
Protocol: (§1) Stability of Compound-3 was first investigated in microsomal systems from human and rat. The microsomal protein and Compound-3 concentrations were optimized to 0.2 mg/mL and 1 µM, respectively. Before the start of the incubation, reaction mixtures containing phosphate buffer (100 mM, pH 7.4), microsomes and Compound-3 in a total volume of 50 µL were warmed up at 37 °C for 10 min. The reaction was started with the addition of NADPH at a final concentration of 1 mM. Incubations were terminated at a specified time with the addition of 100 µL ice-cold acetonitrile containing the internal standard. The samples were then centrifuged, and aliquots of 10 µL of the supernatants were transferred into liquid chromatography-tandem mass spectrometry (LC-MS/MS) for the analysis of Compound-3 levels.

[2] = Metabolic stability in rat liver microsomes; assay type: in vitro ADME; details: rat liver microsomes 0.2 mg/mL, with NADPH, 1 μM, 37 °C
Protocol: as §1

Stability in rat plasma = assay type: in vitro ADME; details: 1 μM, 37 °C
Protocol: For stability testing in plasma, the reaction was started with the addition of Compound-3 (1 µM). At specified time points, aliquots of 25 µL of the reaction mixtures were transferred into 100 μL ice-cold acetonitrile containing the internal standard. The samples were then centrifuged, and aliquots of 10 µL of the supernatants were transferred onto LC-MS/MS for the analysis of Compound-3 levels.

alkaline phosphatase = assay: Hydrolysis of Compound-3 by alkaline phosphatase (gemcitabine formation); assay type: in vitro ADME; design: key to detected in matrix ALP: √: metabolites were detected by high-resolution mass spectrometry
Protocol: Compound-3 was incubated with alkaline phosphatase, and the linearity of gemcitabine formation as a function of time and protein concentration was first examined. The reaction mixtures consisted of alkaline phosphatase, 100 mM phosphate buffer (pH 7.4) and Compound-3 (10 μM). The final volume of the incubation mixture was 200 μL. The mixture was warmed up at 37 °C for 2 min prior to the initiation of the reaction with the addition of the enzyme. At specified time points, 25 μL of the incubation mixtures was added to 100 μL cold acetonitrile containing the internal standard to terminate the reaction. Levels of gemcitabine were determined by LC-MS/MS. […] Compound-3 was tested at concentrations ranging from 0 to 200 μM. Kinetic parameters of Compound-3 in alkaline phosphatase were calculated using GraphPad Prism (Version 6.0, GraphPad Software Inc., San Diego, CA) and nonlinear regression analysis. Equation used was as the following (the Michaelis-Menten equation):V = (Vmax × [S])/(Km + [S])(1) where V is the rate of metabolite formation, Vmax is the maximum velocity, Km is the Michaelis constant (substrate concentration at 0.5 Vmax), and [S] is the substrate concentration.

[3] = Metabolite identification by UPLC/Triple TOF MS in rat intestinal microsomes; assay type: in vitro ADME; design: key: √: metabolites were detected by high-resolution mass spectrometry; details: Compound-3 10 μM, NADPH, 60 min, HRMS
[4] = test system: CYP1A2, CYP2B6, CYP2C8, CYP2C9, CYP2C19, CYP2D6, CYP4A11 and CYP4F3; assay: Reaction phenotyping with the rest of the recombinant CYP isozymes; assay type: in vitro ADME, human; details: 50 nM, 1 μM, NADPH
Protocol: Compound-3 was incubated separately with human cDNA-expressed cytochrome P450s (CYP1A2, CYP2B6, CYP2C8, CYP2C9, CYP2C19, CYP2D6, CYP3A4, CYP4A11, CYP4F2 and CYP4F3). The incubation mixtures contained individual CYP isoenzymes (50 nM), potassium phosphate buffer (100 mM, pH 7.4), NADPH (1 mM), and Compound-3 (1 µM). The final volume of the incubation mixture was 50 µL. Before the start of the incubation, reaction mixtures were warmed up at 37 °C for 10 min. The reaction was initiated with the addition of NADPH and the incubations were performed at 37 °C in a water bath. After 60 min of incubation, the reactions were terminated with an equal volume of ice-cold acetonitrile containing the internal standard. Control samples without NADPH but substrates were included. The samples were then centrifuged and aliquots of 10 μL of the supernatants were transferred onto LC-MS/MS for the analysis of Compound-3 and M4 (carboxylic acid) levels.

[5] = alkaline phosphatase 0.1 mg/mL protein, 60 min, 37 °C, Michaelis-Menten

CCCCCCCCCCCCCCCCCCOCCOP(=O)(O)OCC1OC(n2ccc(N)nc2=O)C(F)(F)C1O (stereo not drawn) [Compound-3]
stability in microsomes in the absence of NADPH ([1]; human and rat liver and intestinal microsomes, absence of NADPH): relatively stable
disappearance after 60 min incubation ([1]; human liver microsomes 0.2 mg/mL, with NADPH, 37 °C, 60 min): more than 70%
disappearance in 60 min [2]: ~ 10%
disappearance in plasma (Stability in rat plasma): did not display noticeable disappearance
Km (alkaline phosphatase; [5]): 57.2 µM
Vmax of gemcitabine formation (alkaline phosphatase; [5]): 60.8 pmol/min/mg-protein
detected in matrix ALP (alkaline phosphatase; incubation of Compound-3 with alkaline phosphatase, HRMS): √
detected in matrix RIM [3]: √
metabolism of Compound-3 by CYP isozyme [4]: did not participate

Reference: PMC6100113, “Involvement of CYP4F2 in the Metabolism of a Novel Monophosphate Ester Prodrug of Gemcitabine and Its Interaction Potential In Vitro” (Molecules : A Journal of Synthetic Chemistry and Natural …, 2018)
